Data set [1] can be described thus: Color stability of 10% strength solutions in water/methanol (1:1), 7 h at 65° C., with and without stabilizer. The data set is classed as physicochemical. To be noted: 10% strength solution in water/methanol (1:1), no additive. Here is the method:
The experiments took place under the following conditions: 10% strength solutions in water/methanol (1:1)—7 h at 65° C.

Data set [2] can be described thus: Color stability of 50% strength water/methanol solutions stirred at reflux (65° C.) in air, Gardner/Hazen color number.
The mark [3] stands for this setting: 50% solution in 1:1 water/methanol, without additive, reaction time 0 h.
Setting [4] is: 50% solution in 1:1 water/methanol, without additive, reaction time 1 h.
The mark [5] stands for this setting: 50% solution in 1:1 water/methanol, without additive, reaction time 7 h.
The mark [6] stands for this setting: 50% choline ascorbate solution, additive 1% by weight, reaction time 4 h.
Setting [7] is: 50% choline ascorbate solution, additive 1% by weight, reaction time 3 h.
Where [8] appears, read: 50% choline ascorbate solution, additive 1% by weight, reaction time 5 h.

Take `C[N+](C)(C)CCO.O=C([O-])C(O)C(O)C(=O)O` (stereo not drawn) [Choline bitartrate]: the “Color number Gardner” value in data set [1], in data set [2] (setting [3]), in data set [2] (setting [4]) and in data set [2] (setting [5]) was 0.1 in each case. Further, the “Color number Hazen” value in data set [1] stood at 32; in data set [2] (setting [3]), 27; in data set [2] (setting [4]) it was 30; in data set [2] (setting [5]), 28.

As for `CC(=O)N[C@@H](CS)C(=O)O` [N-Acetylcysteine], in data set [2] (setting [6]), the “Color number Gardner” value came to 0.9 and the “Color number Hazen” value stood at 162.

For the compound `O=c1[nH]c(=O)c2[nH]c(=O)[nH]c2[nH]1` [Uric acid], the “Color number Gardner” value in data set [2] (setting [7]) was 0.9; in data set [2] (setting [8]), 1.4. Also, the “Color number Hazen” value in data set [2] (setting [7]) is on record as 162; in data set [2] (setting [8]) it was 237.

As for `O=C(O)CCCC[C@@H](S)CCS` (racemic) [Dihydrolipoic acid], in data set [2] (setting [6]), the “Color number Gardner” value is listed as 0.2 and the “Color number Hazen” value is listed as 53.

In the case of `O=C1O[C@H]([C@@H](O)CO)C(O)=C1O` [L-(+)-Ascorbic acid], the “Color number Gardner” value in data set [1], in data set [2] (setting [3]), in data set [2] (setting [4]) and in data set [2] (setting [5]) was 0.1 throughout. Moreover, the “Color number Hazen” value was 27 in data set [1], 27 in data set [2] (setting [3]), 31 in data set [2] (setting [4]) and 29 in data set [2] (setting [5]).

Consider `OB(O)c1ccccc1` [Phenylboronic acid], for which, in data set [2] (setting [6]), the “Color number Gardner” value is 2.7 and the “Color number Hazen” value is recorded as 589.

In the case of `N[C@@H](CCC(=O)N[C@@H](CS)C(=O)NCC(=O)O)C(=O)O` [Glutathione], in data set [2] (setting [6]), the “Color number Gardner” value was 0.4 and the “Color number Hazen” value amounted to 122.

`O=C1O[C@H]([C@@H](O)CO)C([O-])=C1O.[Na+]` [Sodium ascorbate]: the “Color number Gardner” value in data set [1], in data set [2] (setting [3]), in data set [2] (setting [4]) and in data set [2] (setting [5]) was 0.1 in each case. In addition, the “Color number Hazen” value in data set [1] turned out to be 31; in data set [2] (setting [3]) it was 26; in data set [2] (setting [4]), 28; in data set [2] (setting [5]) it was 31.

For the compound `N[C@@H](CS)C(=O)O` [Cysteine], in data set [2] (setting [6]), the “Color number Gardner” value is 0.1 and the “Color number Hazen” value was 35.

On to `OP(O)O` [Phosphorous acid], for which, in data set [2] (setting [6]), the “Color number Gardner” value is given as 0.7 and the “Color number Hazen” value came to 163.

In the case of `C[N+](C)(C)CCO.[Cl-]` [Choline chloride], in data set [1], the “Color number Gardner” value is listed as 0.1 and the “Color number Hazen” value is recorded as 35.

The values are drawn from patent US20060153912A1 (BASF Aktiengesellschaft, priority 2002, published 2006).
